# Article PMC9221290, “Alkaloids of Dicranostigma franchetianum (Papaveraceae) and Berberine Derivatives as a New Class of Antimycobacterial Agents” (Biomolecules, 2022)
# Read-outs that look alike come from different tables or passages of the source.
# Experiments:
# [1] = test system: Mycobacterium avium DSM 44156 (ATCC 25291); experiment: Antimycobacterial microdilution broth assay (resazurin), M. avium; type: cell-based; conditions: 96 h; for MIC: Mycobacterium avium, read-out: MIC M. avium, microdilution broth, resazurin, 96 h; for MIC M. avium: microdilution broth, resazurin
# [2] = test system: Mycolicibacterium aurum DSM 43999 (ATCC 23366); experiment: Antimycobacterial microdilution broth assay (resazurin), M. aurum; type: cell-based; conditions: 72 h; for MIC: Mycolicibacterium aurum, read-out: MIC M. aurum, microdilution broth, resazurin, 72 h; for MIC M. aurum: microdilution broth, resazurin
# HepG2 cells [3] = experiment: cells; conditions: Homo sapiens, HepG2, 24 h
# [4] = test system: Mycobacterium kansasii DSM 44162 (ATCC 12478); experiment: Antimycobacterial microdilution broth assay (resazurin), M. kansasii; type: cell-based; conditions: 96 h; for MIC: Mycobacterium kansasii, read-out: MIC M. kansasii, microdilution broth, resazurin, 96 h
# [5] = test system: Mtb H37Ra ITM-M006710 (ATCC 9431); experiment: Antimycobacterial microdilution broth assay (resazurin), Mtb H37Ra; type: cell-based, Mycobacterium tuberculosis
# [6] = test system: Mycolicibacterium smegmatis DSM 43465 (ATCC 607); experiment: Antimycobacterial microdilution broth assay (resazurin), M. smegmatis; type: cell-based; conditions: 48 h; for MIC: Mycolicibacterium smegmatis, read-out: MIC M. smegmatis, microdilution broth, resazurin, 48 h; for MIC M. smegmatis: microdilution broth, resazurin
# in vitro = conditions: human, % of cell viability compared to control; for viability at 1 µM: HepG2, 1 µM; for viability at 5 µM: HepG2, 5 µM; for viability at 10 µM: HepG2, 10 µM; for viability at 100 µM: HepG2, 100 µM; for viability at 25 µM: HepG2, 25 µM; for viability at 50 µM: HepG2, 50 µM; for viability at 75 µM: HepG2, 75 µM
# HepG2 cells [7] = test system: HepG2 cells
# [8] = read-out: HepG2 IC50, MTT, 24 h incubation
# [9] = Mycobacterium tuberculosis, 120 h, microdilution broth, resazurin, 120 h, read-out: MIC Mtb H37Ra
# [10] = Mycobacterium tuberculosis, calculated from MIC (µg/mL) and MW, read-out: MIC Mtb H37Ra
# [11] = microdilution broth, resazurin, 120 h
# [12] = Mycobacterium tuberculosis, 120 h, read-out: MIC Mtb H37Ra, microdilution broth, resazurin, 120 h
# [13] = Mycobacterium tuberculosis, read-out: MIC Mtb H37Ra (µM), calculated from MIC (µg/mL) and MW
compound,measurement,setting,value
"COc1ccc2cc3[n+](cc2c1OCc1ccccc1)CCc1cc2c(cc1-3)OCO2 [16a, 9-O-benzylberberine chloride]",MIC,[1],3.12 mg/L
same,MIC,[2],3.12 mg/L
same,IC50,"HepG2 cells [3]; read-out: HepG2 IC50, 1. measurement, MTT, 24 h, single measurement 1",29.1 µM
same,IC50,"HepG2 cells [3]; read-out: HepG2 IC50, 2. measurement, MTT, 24 h, single measurement 2",20.8 µM
same,IC50,"HepG2 cells [3]; read-out: HepG2 IC50, 3. measurement, MTT, 24 h, single measurement 3",23.5 µM
same,IC50,HepG2 cells [3]; [8],24.5 ± 4.25 µM
same,MIC,[4],6.25 mg/L
same,MIC,[5]; [9],6.25 mg/L
same,MIC,[5]; [10],13.9 µM
same,MIC,[6],0.78 mg/L
same,viability at 1 µM,in vitro; 1. measurement,93.4%
same,viability at 5 µM,in vitro; 1. measurement,81.9%
same,viability at 10 µM,in vitro; 1. measurement,68.9%
same,viability at 20 µM,"in vitro; 1. measurement, HepG2, 20 µM",59.4%
same,viability at 40 µM,"in vitro; 1. measurement, HepG2, 40 µM",56.2%
same,viability at 60 µM,"in vitro; 1. measurement, HepG2, 60 µM",41.5%
same,viability at 80 µM,"in vitro; 1. measurement, HepG2, 80 µM",20.2%
same,viability at 100 µM,in vitro; 1. measurement,8.76%
same,viability at 1 µM,in vitro; 2. measurement,87.9%
same,viability at 5 µM,in vitro; 2. measurement,73%
same,viability at 10 µM,in vitro; 2. measurement,59.2%
same,viability at 25 µM,in vitro; 2. measurement,48.9%
same,viability at 50 µM,in vitro; 2. measurement,42.1%
same,viability at 75 µM,in vitro; 2. measurement,31.1%
same,viability at 100 µM,in vitro; 2. measurement,16.6%
same,viability at 1 µM,in vitro; 3. measurement,96.4%
same,viability at 5 µM,in vitro; 3. measurement,76.4%
same,viability at 10 µM,in vitro; 3. measurement,60.7%
same,viability at 25 µM,in vitro; 3. measurement,50.3%
same,viability at 50 µM,in vitro; 3. measurement,44.9%
same,viability at 75 µM,in vitro; 3. measurement,29.6%
same,viability at 100 µM,in vitro; 3. measurement,15.3%
same,SI (selectivity index),HepG2 cells [7],1.76
"O=C(O)c1cn(C2CC2)c2cc(N3CCNCC3)c(F)cc2c1=O [ciprofloxacin, reference compound]",MIC,[1],0.5 mg/L
same,MIC M. aurum,[2],0.01562 mg/L
same,MIC M. aurum,[2]; listed as CPX,0.0078 to 0.0156 mg/L
same,MIC,[4],0.25 mg/L
same,MIC,[5]; [9],0.125 to 0.25 mg/L
same,MIC,[5]; [10],0.75 µM
same,MIC Mtb H37Ra,[5]; [11],0.25 mg/L
same,MIC,[6],0.0625 to 0.125 mg/L
same,MIC M. smegmatis,[6],0.0625 mg/L
"CN1Cc2c(ccc3c2OCO3)-c2ccc3cc4c(cc3c21)OCO4 [compound 1, dihydrosanguinarine]",MIC,[1],≥ 500 mg/L
same,MIC,[2],≥ 500 mg/L
same,MIC,[4],125 mg/L
same,MIC,[5]; [9],≥ 500 mg/L
same,MIC,[5]; [10],≥ 1500 µM
same,MIC,[6],≥ 500 mg/L
"COc1ccc2c(c1OC)CN(C)c1c-2ccc2cc3c(cc12)OCO3 [compound 2, dihydrochelerythrine]",MIC,[1],62.5 mg/L
same,MIC,[2],250 mg/L
same,MIC,[4],250 mg/L
same,MIC,[5]; [9],250 mg/L
same,MIC,[5]; [10],716 µM
same,MIC,[6],≥ 500 mg/L
"c1cc2c(c3c1C[C@H]1c4cc5c(cc4CCN1C3)OCO5)OCO2 [compound 4, stylopine]",MIC,[1],≥ 125 mg/L
same,MIC,[2],≥ 125 mg/L
same,MIC,[4],≥ 125 mg/L
same,MIC,[5]; [9],≥ 125 mg/L
same,MIC,[5]; [10],≥ 387 µM
same,MIC,[6],≥ 125 mg/L
"COc1ccc2c(c1OC)CN(C)CCc1cc3c(cc1C(=O)C2)OCO3 [compound 7, allocryptopine]",MIC,[1],≥ 250 mg/L
same,MIC,[2],≥ 250 mg/L
same,MIC,[4],250 mg/L
same,MIC,[5]; [9],≥ 250 mg/L
same,MIC,[5]; [10],≥ 678 µM
same,MIC,[6],≥ 250 mg/L
"COc1cc2c(cc1OC)C(=O)Cc1ccc3c(c1CN(C)CC2)OCO3 [compound 8, cryptopine]",MIC,[1],≥ 125 mg/L
same,MIC,[2],≥ 125 mg/L
same,MIC,[4],≥ 125 mg/L
same,MIC,[5]; [9],≥ 125 mg/L
same,MIC,[5]; [10],≥ 339 µM
same,MIC,[6],≥ 125 mg/L
"COc1ccc2c(c1O)-c1c(OC)c(OC)cc3c1[C@H](C2)N(C)CC3 [compound 10, isocorydine]",MIC,[1],≥ 500 mg/L
same,MIC,[2],≥ 500 mg/L
same,MIC,[4],125 mg/L
same,MIC,[5]; [9],≥ 500 mg/L
same,MIC,[5]; [10],≥ 1430 µM
same,MIC,[6],≥ 500 mg/L
"COc1cc2c(cc1OC)-c1c(OC)c(OC)cc3c1[C@H](C2)N(C)CC3 [compound 11, glaucine]",MIC,[1],125 mg/L
same,MIC,[2],125 mg/L
same,MIC,[4],62.5 mg/L
same,MIC,[5]; [12],125 mg/L
same,MIC,[5]; [13],≥ 352 µM
same,MIC,[6],≥ 250 mg/L
"COc1cc2c3c(c1O)-c1c(ccc(OC)c1OC)C[C@@H]3N(C)CC2 [compound 12, corydine]",MIC,[1],62.5 mg/L
same,MIC,[2],250 mg/L
same,MIC,[4],250 mg/L
same,MIC,[5]; [9],≥ 500 mg/L
same,MIC,[5]; [10],≥ 1470 µM
same,MIC,[6],≥ 500 mg/L
"COc1cc2c(cc1O)[C@@H]1Cc3ccc(OC)c(OC)c3CN1CC2 [compound 13, isocorypalmine]",MIC,[1],≥ 250 mg/L
same,MIC,[2],≥ 250 mg/L
same,MIC,[4],≥ 250 mg/L
same,MIC,[5]; [12],≥ 250 mg/L
same,MIC,[5]; [13],≥ 733 µM
same,MIC,[6],≥ 250 mg/L
"COc1cc2c(cc1O)[C@@H]1Cc3ccc(OC)c(O)c3CN1CC2 [compound 15, scoulerine]",MIC,[1],250 mg/L
same,MIC,[2],125 mg/L
same,MIC,[4],15.6 mg/L
same,MIC,[5]; [9],250 mg/L
same,MIC,[5]; [10],764 µM
same,MIC,[6],125 mg/L
"COc1cccc2c1C(=O)c1c(O)c3c(c(O)c1C2=O)C[C@@](O)(C(=O)CO)C[C@@H]3O[C@H]1C[C@H](N)[C@H](O)[C@H](C)O1 [doxorubicine, reference compound]",IC50,HepG2 cells [3]; [8],30.4 ± 1.74 µM
"NNC(=O)c1ccncc1 [isoniazid, reference compound]",MIC,[1],500 to 1000 mg/L
same,MIC M. avium,[1],500 mg/L
same,MIC M. aurum,[2],3.91 mg/L
same,MIC M. aurum,[2]; listed as INH,1.95 to 3.91 mg/L
same,MIC,[4],3.12 to 6.25 mg/L
same,MIC M. kansasii,"[4]; microdilution broth, resazurin",6.25 mg/L
same,MIC,[5]; [9],0.125 to 0.25 mg/L
same,MIC,[5]; [10],1.82 µM
same,MIC Mtb H37Ra,[5]; [11],0.25 mg/L
same,MIC,[6],15.6 to 31.2 mg/L
same,MIC M. smegmatis,[6],31.25 mg/L
"CO[C@H]1/C=C/O[C@@]2(C)Oc3c(C)c(O)c4c(O)c(c(/C=N/N5CCN(C)CC5)c(O)c4c3C2=O)NC(=O)/C(C)=C\C=C\[C@H](C)[C@H](O)[C@@H](C)[C@@H](O)[C@@H](C)[C@H](OC(C)=O)[C@@H]1C [rifampicin, reference compound]",MIC,[2],0.39 to 0.78 mg/L
same,MIC M. aurum,[2],0.39 mg/L
same,MIC,[5]; [13],0.0075 µM
same,MIC Mtb H37Ra,"[5]; microdilution broth, resazurin, 120 h, listed as RIF",0.00156 to 0.0031 mg/L
protopine [compound 6],MIC M. avium,[1],250 mg/L
same,MIC M. aurum,[2],≥500 mg/L
same,MIC,"[5]; calculated from MIC (µg/mL) and MW, read-out: MIC Mtb H37Ra",≥1416 µM
same,MIC Mtb H37Ra,[5]; [11],≥500 mg/L
same,MIC M. smegmatis,[6],≥500 mg/L
